Experimental data reported in patent US20050107611A1, “Pyrazolyl-substituted triazoloquinoxalines” (priority 2001, published 2005).
Blank lines part the entries; values can stand above or below the compound they belong to.

Assays:
[1] = molecular target: T1, human A1-adenosine receptor (Homo sapiens, UniProt P30542); assay: Radioligand binding with [3H]CCPA on recombinant human A1-adenosine receptors expressed by CHO cells; details: read-out: A1 K1, Human
T1 construct: expressed in transfected cells; host or cells: CHO cells
T1 sequence (P30542 1-326): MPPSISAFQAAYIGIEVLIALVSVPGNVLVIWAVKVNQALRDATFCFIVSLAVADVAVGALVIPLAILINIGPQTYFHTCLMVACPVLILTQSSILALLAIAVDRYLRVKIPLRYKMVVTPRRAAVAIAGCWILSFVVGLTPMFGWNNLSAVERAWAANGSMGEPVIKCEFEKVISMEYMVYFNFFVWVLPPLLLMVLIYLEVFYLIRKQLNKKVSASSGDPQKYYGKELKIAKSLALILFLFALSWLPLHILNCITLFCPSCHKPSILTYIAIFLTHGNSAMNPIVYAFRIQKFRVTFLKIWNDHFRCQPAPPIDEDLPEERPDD
From the text: The following selective radioligands are used in the biological tests: • [^3H]CCPA (for A1 ARs) [Klotz et al., Naunyn-Schmiedeberg's Arch. Pharmacol., 340, 679 (1989)] • [^3]MSX-2 (for A2A ARs) [Muiller et al., Eur. J. Pharm. Sci., 10, 259 (2000)] • [^3H]ZM241385 (for A2B ARs_[X.-D. Ji, K. A. Jacobson, Drug Des. Discov., 16, 217 (1999)] • [^3H]PSB-11 (new antagonistic radioligand for human A3 ARs) [M. Dieckmann, M. Thorand, V. Ozola, C. E. Muiller, in Vorbereitung [Preparation] (2001)]. • [^125I]AB-MECA (for rat-A3 ARs) [Olah et al., Mol. Pharmacol., 45, 978 (1994)]. Description of the Assays That are Used for Testing Substances Production of Tissue Preparations Made from Rat Brains
As cell cultures, for example, CHO cells, which express the human A1-adenosine receptor, are used.
The nutrient medium, trypsine and PBS (phosphate-buffered common salt solution) are heated in a water bath to 37° C. The medium is suctioned off from the flask that is approximately 80% to 90% confluently covered with CHO cells. […]
The mixture is incubated for 90 minutes in an oscillating water bath at 23° C. […] The filter plates are conveyed in scintillation vials, doused with 2.5 ml of Ultima Gold Scintillation cocktail and incubated for at least 6 hours before they are measured in a scintillation counter.
The mean value is calculated from three independent experiments. […]

[2] = molecular target: A2A adenosine receptor (Rattus norvegicus, UniProt P30543); details: Table 1, literature values; cited from earlier work

Compound: 4-(chloropyrazolyl)-1-(3-phenylpropyl)-[1,2,4-]triazolo[4,3-a]quinoxaline [Y = C—CH2—CH2—CH2-Ph, R5 = H, R6 = Cl]
Ki [1]: 2 nM

melting point: 205 to 207 °C
Compound: Cn1nc(-c2nc3ccccc3n3c(Cc4cccs4)nnc23)cc1Cl [Y = C—CH2-(2-Thienyl), R5 = CH3, R6 = Cl, 4-(5-Chloro-1H-1-methyl-pyrazol-3-yl)-1-(2-thienylmethyl)-[1,2,4]triazolo[4,3-a]-quinoxaline]

Compound: Clc1cc(-c2nc3ccccc3n3cnnc23)[nH]n1 [Y = C—H, R5 = H, R6 = Cl]
A2A % Inhibition @ 25 μmol [2]: (21%)
